Data reported in patent publication US20050096297A1, “Antibacterial agents” (priority 2003, published 2005).
Values after ≈ are worked out from the molar mass of the structure shown.

Assays:
Test in all cases: Test A antibacterial assay, MIC by microtitration
Assay type in all cases: cell-based
S. aureus UC-76 = settings: Staphylococcus aureus, UC76; Gram Positive Bacteria; strain UC-76; read-out: Minimum Inhibitory Concentrations S. aureus UC-76
Protocol: (§1) Test A—Antibacterial Assays
(§2) The compounds of the present invention were tested against an assortment of Gram-negative and Gram-positive organisms using standard microtitration techniques (Cohen et. al., Antimicrob., 1985;28:766; Heifetz, et. al., Antimicrob., 1974;6:124).

E. faecalis MGH-2 = settings: Enterococcus faecalis, MGH2; Gram Positive Bacteria; strain MGH-2; read-out: Minimum Inhibitory Concentrations E. faecalis MGH-2
Protocol: as §1, §2

S pyogenes C203 = settings: Gram Positive Bacteria; strain C203; read-out: Minimum Inhibitory Concentrations S pyogenes C203
Protocol: as §1, §2

E. coli EC-2549 = settings: Escherichia coli, EC2549; Gram Negative Bacteria; strain EC-2549; read-out: Minimum Inhibitory Concentrations E. coli EC-2549
Protocol: as §1, §2

M. catarrhalis BC-3531 = settings: Moraxella catarrhalis, BC3531; Gram Negative Bacteria; strain BC-3531; read-out: Minimum Inhibitory Concentrations M. catarrhalis BC-3531
Protocol: as §1, §2

H. influenzae HI-3542 = settings: Haemophilus influenzae, HI3542; Gram Negative Bacteria; strain HI-3542; read-out: Minimum Inhibitory Concentrations H. influenzae HI-3542
Protocol: as §1, §2

Row | SMILES | MIC (S. aureus UC-76) | MIC (E. faecalis MGH-2) | MIC (S pyogenes C203) | MIC (E. coli EC-2549) | MIC (M. catarrhalis BC-3531) | MIC (H. influenzae HI-3542)
1 | O=C(O)c1cn(C2CC2)c2c(Cl)c(N3CC(O)(C4CC4)C3)c(F)cc2c1=O [drawing 132] | – | – | – | 0.002 µg/mL (≈ 0.00509 µM) | 0.03 µg/mL (≈ 0.0764 µM) | 0.03 µg/mL (≈ 0.0764 µM)
2 | Cc1c(N2CC(O)(C(F)(F)F)C2)c(F)cc2c(=O)c(C(=O)O)cn(C3CC3)c12 | – | – | – | 0.0004 µg/mL (≈ 0.000999 µM) | 0.06 µg/mL (≈ 0.15 µM) | 0.03 µg/mL (≈ 0.0749 µM)
3 | O=C(O)c1cn(C2CC2)c2c(Cl)c(N3CC(O)(C4CC4)C3)c(F)cc2c1=O [drawing 135] | 0.03 µg/mL (≈ 0.0764 µM) | 0.5 µg/mL (≈ 1.27 µM) | 0.5 µg/mL (≈ 1.27 µM) | – | – | –

Results, then the compound that gave them:

Row | MIC (S. aureus UC-76) | MIC (E. faecalis MGH-2) | MIC (S pyogenes C203) | MIC (E. coli EC-2549) | MIC (M. catarrhalis BC-3531) | MIC (H. influenzae HI-3542) | SMILES
4 | 0.03 µg/mL (≈ 0.0832 µM) | 0.25 µg/mL (≈ 0.694 µM) | 0.25 µg/mL (≈ 0.694 µM) | – | – | – | Cc1c(N2CC(CCO)C2)c(F)cc2c(=O)c(C(=O)O)cn(C3CC3)c12 [drawing 133]
5 | – | – | – | 0.002 µg/mL (≈ 0.00555 µM) | 0.015 µg/mL (≈ 0.0416 µM) | 0.008 µg/mL (≈ 0.0222 µM) | Cc1c(N2CC(CCO)C2)c(F)cc2c(=O)c(C(=O)O)cn(C3CC3)c12 [drawing 130]
